Measurements published in patent US20160376659A1, “Breast Cancer Biomarker” (The University of Manchester, priority 2015, published 2016).
Entries after “also recorded” stand apart in the source; their conditions may differ.

Tests used:
[1] = tested on: Notch1; experiment: Notch1 activity in MCF7, MDA-MB-231 and BT474 cells; format: cell-based
[2] = tested on: Notch4; experiment: Notch4 activity in MCF7, MDA-MB-231 and BT474 cells; format: cell-based

| Compound | Notch1 activity [1] | Notch4 activity [2] |
| --- | --- | --- |
| C[C@H](NC(=O)Cc1cc(F)cc(F)c1)C(=O)N[C@H](C(=O)OC(C)(C)C)c1ccccc1 [DAPT] | inhibit | no Notch4; also recorded: not NOTCH4 activity |
| C[C@H](NC(=O)Cc1cc(F)cc(F)c1)C(=O)N[C@@H]1C(=O)N(C)c2ccccc2-c2ccccc21 [DBZ] | inhibit | no Notch4; also recorded: not NOTCH4 activity |
